Laboratory results reported in PubChem BioAssay AID220 (DTP/NCI, 2004).
Values joined by “and” are separate entries in the source; they are usually repeats but may differ in a detail not shown here. Equal entries are not always repeated. Records with an inconclusive call do not appear.

System: CD8F1 mice, subcutaneous mammary adenocarcinoma, T/C%
Experiment: NCI In Vivo Anticancer Drug Screen. Data for tumor model Mammary Adenocarcinoma CD8F1 (subcutaneous) in CD8F1
Settings: higher = larger tumour
Outline: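 Compound-treated versus vehicle-treated mice with transplantable tumors; survival or tumor size compared as T/C.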

[1] = endpoint: median tumor weight (est.), dose: 8.0 mg/kg/injection, schedule: Q07DX005 (ip), vehicle: suspension in saline
[2] = endpoint: median tumor weight (est.), dose: 16.0 mg/kg/injection, schedule: Q07DX005 (ip), vehicle: suspension in saline
[3] = endpoint: median tumor weight (est.), dose: 12.5 mg/kg/injection, schedule: Q07DX005 (ip), vehicle: saline with Tween-80
[4] = endpoint: median tumor weight (est.), dose: 25.0 mg/kg/injection, schedule: Q07DX005 (ip), vehicle: saline with Tween-80
[5] = endpoint: median tumor weight (est.), dose: 50.0 mg/kg/injection, schedule: Q07DX005 (ip), vehicle: saline with Tween-80
[6] = endpoint: median tumor weight (est.), dose: 12.5 mg/kg/injection, schedule: Q07DX005 (ip), vehicle: saline
[7] = endpoint: median tumor weight (est.), dose: 25.0 mg/kg/injection, schedule: Q07DX005 (ip), vehicle: saline
[8] = endpoint: median tumor weight (est.), dose: 50.0 mg/kg/injection, schedule: Q07DX005 (ip), vehicle: saline
[9] = endpoint: median tumor weight (est.), dose: 100.0 mg/kg/injection, schedule: Q07DX005 (ip), vehicle: saline
[10] = endpoint: median tumor weight (est.), dose: 200.0 mg/kg/injection, schedule: Q07DX005 (ip), vehicle: saline
[11] = endpoint: median tumor weight (est.), dose: 100.0 mg/kg/injection, schedule: Q07DX005 (ip), vehicle: saline with Tween-80
[12] = endpoint: median tumor weight (est.), dose: 400.0 mg/kg/injection, schedule: Q07DX005 (ip), vehicle: saline with Tween-80

CN(C)C(=O)c1cccc(COc2ccc(N3C(N)=NC(N)=NC3(C)C)cc2Cl)c1
T/C [1]: 154 % of control
T/C [2]: 57 % of control
T/C (endpoint: median tumor weight (est.), dose: 32.0 mg/kg/injection, schedule: Q07DX005 (ip), vehicle: suspension in saline): 64 % of control

CN(C)N=Nc1cn[nH]c1C(N)=O
T/C (endpoint: median tumor weight (est.), dose: 25.0 mg/kg/injection, schedule: Q07DX005 (ip), vehicle: Klucel (hydroxypropylcellulose) (HPC)): 97 % of control
T/C (endpoint: median tumor weight (est.), dose: 50.0 mg/kg/injection, schedule: Q07DX005 (ip), vehicle: Klucel (hydroxypropylcellulose) (HPC)): 56 % of control
T/C (endpoint: median tumor weight (est.), dose: 100.0 mg/kg/injection, schedule: Q07DX005 (ip), vehicle: Klucel (hydroxypropylcellulose) (HPC)): 73 % of control
T/C (endpoint: median tumor weight (est.), dose: 200.0 mg/kg/injection, schedule: Q07DX005 (ip), vehicle: Klucel (hydroxypropylcellulose) (HPC)): 57 % of control

CCC[P+](c1ccccc1)(c1ccccc1)c1ccccc1
T/C (endpoint: mean tumor weight, dose: 3.12 mg/kg/injection, schedule: Q07DX006 (ip), vehicle: saline with Tween-80): 211 % of control
T/C (endpoint: mean tumor weight, dose: 6.25 mg/kg/injection, schedule: Q07DX006 (ip), vehicle: saline with Tween-80): 241 % of control
T/C (endpoint: mean tumor weight, dose: 12.5 mg/kg/injection, schedule: Q07DX006 (ip), vehicle: saline with Tween-80): 40 % of control
T/C (endpoint: mean tumor weight, dose: 25.0 mg/kg/injection, schedule: Q07DX006 (ip), vehicle: saline with Tween-80): 72 % of control
T/C (endpoint: mean tumor weight, dose: 50.0 mg/kg/injection, schedule: Q07DX006 (ip), vehicle: saline with Tween-80): 38 % of control
T/C (endpoint: median tumor weight (est.), dose: 3.12 mg/kg/injection, schedule: Q07DX005 (ip), vehicle: saline with Tween-80): 83 % of control
T/C (endpoint: median tumor weight (est.), dose: 6.25 mg/kg/injection, schedule: Q07DX004 (ip), vehicle: saline with Tween-80): 112 % of control
T/C (endpoint: median tumor weight (est.), dose: 6.25 mg/kg/injection, schedule: Q07DX005 (ip), vehicle: saline with Tween-80): 72 % of control
T/C (endpoint: median tumor weight (est.), dose: 12.5 mg/kg/injection, schedule: Q07DX004 (ip), vehicle: saline with Tween-80): 172 % of control
T/C [3]: 73 % of control
T/C (endpoint: median tumor weight (est.), dose: 25.0 mg/kg/injection, schedule: Q07DX004 (ip), vehicle: saline with Tween-80): 183 % of control
T/C [4]: 34 % of control
T/C (endpoint: median tumor weight (est.), dose: 50.0 mg/kg/injection, schedule: Q07DX004 (ip), vehicle: saline with Tween-80): 104 % of control
T/C [5]: 30 % of control

COc1cccc2c1C(=O)c1c(O)c3c(c(O)c1C2=O)C[C@@](O)(C(O)CO)C[C@@H]3OC1CC(N(Cc2ccccc2)Cc2ccccc2)C(O)C(C)O1 (some centres undefined)
T/C (endpoint: median tumor weight change, dose: 62.0 mg/kg/injection, schedule: Q01DX001 (ip), vehicle: water): 14 % of control
T/C (endpoint: median tumor weight change, dose: 125.0 mg/kg/injection, schedule: Q01DX001 (ip), vehicle: water): -48 % of control

CCN(CC)CCNc1ccc(C)c2sc3ccccc3c(=O)c12
T/C [6]: 156 % of control
T/C [7]: 198 % of control
T/C [8]: 166 % of control
T/C [9]: 76 % of control
T/C [10]: 42 % of control

Nc1ncn(C2OC(CO)C(O)C2O)c(=O)n1 (centres undefined)
T/C (endpoint: mean tumor weight (est.), dose: 2.0 mg/kg/injection, schedule: Q07DX003 (ip), vehicle: other): 58 % of control
T/C (endpoint: mean tumor weight (est.), dose: 8.0 mg/kg/injection, schedule: Q07DX003 (ip), vehicle: other): 32 % of control
T/C (endpoint: median tumor weight (est.), dose: 1.0 mg/kg/injection, schedule: Q07DX005 (ip), vehicle: saline): 63 % of control
T/C (endpoint: median tumor weight (est.), dose: 2.0 mg/kg/injection, schedule: Q07DX005 (ip), vehicle: saline): 81 % of control
T/C (endpoint: median tumor weight (est.), dose: 4.0 mg/kg/injection, schedule: Q07DX005 (ip), vehicle: saline): 22 % of control
T/C (endpoint: median tumor weight (est.), dose: 8.0 mg/kg/injection, schedule: Q07DX005 (ip), vehicle: saline): 20 % of control
T/C [1]: 22 % of control
T/C (endpoint: median tumor weight (est.), dose: 16.0 mg/kg/injection, schedule: Q07DX005 (ip), vehicle: saline): 3 % of control
T/C [2]: 2 % of control
T/C (endpoint: median tumor weight change, dose: 3.75 mg/kg/injection, schedule: Q01DX001 (ip), vehicle: saline): 89 % of control
T/C (endpoint: median tumor weight change, dose: 7.5 mg/kg/injection, schedule: Q01DX001 (ip), vehicle: saline): 45 % of control
T/C (endpoint: median tumor weight change, dose: 15.0 mg/kg/injection, schedule: Q01DX001 (ip), vehicle: saline): 38 % of control
T/C (endpoint: median tumor weight change, dose: 30.0 mg/kg/injection, schedule: Q01DX001 (ip), vehicle: saline): 36 % of control
T/C (endpoint: median tumor weight change, dose: 62.5 mg/kg/injection, schedule: Q01DX001 (ip), vehicle: saline): 123 % of control
T/C (endpoint: median tumor weight change, dose: 125.0 mg/kg/injection, schedule: Q01DX001 (ip), vehicle: saline): 103 % of control
T/C (endpoint: median tumor weight change, dose: 135.0 mg/kg/injection, schedule: Q01DX001 (ip), vehicle: saline): 44 % of control
T/C (endpoint: median tumor weight change, dose: 250.0 mg/kg/injection, schedule: Q01DX001 (ip), vehicle: saline): 86 % of control
T/C (endpoint: median tumor weight change, dose: 500.0 mg/kg/injection, schedule: Q01DX001 (ip), vehicle: saline): 106 % of control
T/C (endpoint: median tumor weight change, dose: 600.0 mg/kg/injection, schedule: Q01DX001 (ip), vehicle: suspension in saline): 17 % of control
T/C (endpoint: median tumor weight change, dose: 1000.0 mg/kg/injection, schedule: Q01DX001 (ip), vehicle: saline): 103 % of control
T/C (endpoint: median tumor weight change, dose: 1350.0 mg/kg/injection, schedule: Q01DX001 (ip), vehicle: suspension in saline): -11 % of control
T/C (endpoint: median tumor weight change, dose: 1800.0 mg/kg/injection, schedule: Q01DX001 (ip), vehicle: suspension in saline): 60 % of control
T/C (endpoint: median tumor weight change, dose: 2025.0 mg/kg/injection, schedule: Q01DX001 (ip), vehicle: suspension in saline): 16 % of control
T/C (endpoint: median tumor weight change, dose: 3600.0 mg/kg/injection, schedule: Q01DX001 (ip), vehicle: suspension in saline): 43 % of control

CN1CCN(c2ccc([N+](=O)[O-])c3no[n+]([O-])c23)CC1
T/C (endpoint: median tumor weight (est.), dose: 5.0 mg/kg/injection, schedule: Q07DX005 (ip), vehicle: saline with Tween-80): 95 % of control
T/C (endpoint: median tumor weight (est.), dose: 10.0 mg/kg/injection, schedule: Q07DX005 (ip), vehicle: saline with Tween-80): 115 % of control
T/C (endpoint: median tumor weight (est.), dose: 20.0 mg/kg/injection, schedule: Q07DX005 (ip), vehicle: saline with Tween-80): 75 % of control

Cc1ncc([N+](=O)[O-])n1CCSC(N)=O
T/C [3]: 124 % of control and 99 % of control
T/C [5]: 123 % of control
T/C [11]: 96 % of control
T/C [12]: 66 % of control

N#CC(=C1C=CC(=NO)C=C1)c1ccc(Cl)cc1
T/C (endpoint: mean tumor weight, dose: 100.0 mg/kg/injection, schedule: Q07DX006 (ip), vehicle: saline with Tween-80): 36 % of control and 52 % of control
T/C (endpoint: mean tumor weight, dose: 200.0 mg/kg/injection, schedule: Q07DX006 (ip), vehicle: saline with Tween-80): 19 % of control and 26 % of control
T/C (endpoint: mean tumor weight, dose: 400.0 mg/kg/injection, schedule: Q07DX006 (ip), vehicle: saline with Tween-80): 7 % of control and 10 % of control
T/C [4]: 98 % of control
T/C [5]: 63 % of control
T/C [11]: 58 % of control
T/C (endpoint: median tumor weight (est.), dose: 200.0 mg/kg/injection, schedule: Q07DX005 (ip), vehicle: saline with Tween-80): 57 % of control
T/C [12]: 36 % of control
T/C (endpoint: median tumor weight change, dose: 62.5 mg/kg/injection, schedule: Q01DX001 (ip), vehicle: saline with Tween-80): 92 % of control
T/C (endpoint: median tumor weight change, dose: 125.0 mg/kg/injection, schedule: Q01DX001 (ip), vehicle: saline with Tween-80): 88 % of control
T/C (endpoint: median tumor weight change, dose: 250.0 mg/kg/injection, schedule: Q01DX001 (ip), vehicle: saline with Tween-80): 70 % of control
T/C (endpoint: median tumor weight change, dose: 500.0 mg/kg/injection, schedule: Q01DX001 (ip), vehicle: saline with Tween-80): 28 % of control
T/C (endpoint: median tumor weight change, dose: 1000.0 mg/kg/injection, schedule: Q01DX001 (ip), vehicle: saline with Tween-80): 26 % of control

Cc1ccoc1
T/C (endpoint: median tumor weight change, dose: 20.8 mg/kg/injection, schedule: Q03HX003 (ip), vehicle: saline with Tween-80): 66 % of control
T/C (endpoint: median tumor weight change, dose: 41.6 mg/kg/injection, schedule: Q03HX003 (ip), vehicle: saline with Tween-80): 82 % of control
T/C (endpoint: median tumor weight change, dose: 83.3 mg/kg/injection, schedule: Q03HX003 (ip), vehicle: saline with Tween-80): 62 % of control
T/C (endpoint: median tumor weight change, dose: 166.6 mg/kg/injection, schedule: Q03HX003 (ip), vehicle: saline with Tween-80): 73 % of control

CC[PH+](CC)CC[S-].CC[PH+](CC)CC[S-].[Au+].[Au+]
T/C (endpoint: median tumor weight change, dose: 100.0 mg/kg/injection, schedule: Q01DX001 (ip), vehicle: Klucel (hydroxypropylcellulose) (HPC)): 29 % of control and 34 % of control
T/C (endpoint: median tumor weight change, dose: 200.0 mg/kg/injection, schedule: Q01DX001 (ip), vehicle: Klucel (hydroxypropylcellulose) (HPC)): 24 % of control

OCC1(CO)COC2(CCCCC2)N1
T/C [6]: 78 % of control
T/C [7]: 64 % of control
T/C [8]: 112 % of control
T/C [9]: 105 % of control
T/C [10]: 81 % of control
T/C (endpoint: median tumor weight (est.), dose: 400.0 mg/kg/injection, schedule: Q07DX005 (ip), vehicle: saline): 93 % of control
